These results are taken from patent US20260345647A1, “AST-3424 COMBINATION FOR TREATING LEUKEMIA AND LYMPHOMA” (ASCENTAWITS PHARMACEUTICALS, LTD., priority 2022, published 2026).

Data set [1] concerns Jurkat, Clone E6-1 cells. The data set can be described thus: In vitro cell proliferation assay, combination therapy (CellTiter-Glo). Format: cell-based, human. The conditions noted are these: 0.64 nM and 16 nM AST-3424. The method, then:
(§1) On day 1, cells were seeded in 96-well cell culture plates (at 180 μL/well).
(§2) On day 2, 10 μL of a 20-fold test concentration of the AST-3424 solution (20-fold concentration of either of the two concentrations IC25 and IC10) was added. The cell plates were gently agitated, and were then placed in an incubator at 37 °C for further culture.
(§3) On day 3, to the combination therapy wells was added 10 μL of a 20-fold test concentration of the compound (cytarabine or daunorubicin) (20-fold concentration of each of the three concentrations IC50, IC25, and ICs), and to the monotherapy wells was added 10 μL of a culture medium containing 2% DMSO. The cell plates were gently agitated, and were then placed in an incubator at 37 °C for further 72 h.
(§4) After incubation, a reagent prepared according to the instructions for the CellTiter-Glo Reagent was added (at 50 μL/well). The cell plates were agitated thoroughly and were then incubated at room temperature in the dark for 10 minutes.
(§5) The cell plate was placed in a plate reader for analysis to detect chemiluminescence and record the data.
(§6) The readings in each well should be converted into cell viability, which was calculated by the formula as described in section 1.1.
(§7) The final viability percentages under different conditions were plotted into column charts.
Background: In ATP-based viability assays light output follows the ATP content of the culture.

Data set [2] concerns SUP-T1 cells. The description is as above. Format: cell-based, human. The conditions noted are these: 0.13 nM and 1 nM AST-3424. As for the experimental part:
as §1, §2, §3, §4, §5, §6, §7

The subject of data set [3] is CCRF-CEM cells. The description is as above. Format: cell-based, human. The settings on record: 0.1 nM and 1 nM AST-3424. The method, then:
as §1, §2, §3, §4, §5, §6, §7

The subject of data set [4] is MOLT-4 cells. The data set is described as above. Format: cell-based, human. As for the experimental part: as §1, §2, §3, §4, §5, §6, §7
Data set [5] has as its system PF-382 cells. The data set is described as above. Format: cell-based, human. The conditions noted are these: 0.64 and 2.5 nM AST-3424. As for the experimental part:
as §1, §2, §3, §4, §5, §6, §7

The test system of another data set is tumor cells. The conditions noted are these: Transwell; MMP-9; cited from earlier work.
In another data set the test system is HepG2. The conditions noted are these: HepG2, high AKR1C3 expression; cited from earlier work.
The next data set concerns cancer cells. The settings on record: cited from earlier work.
The subject of data set [6] is Jurkat, Clone E6-1 cells. Briefly: In vitro cell proliferation assay, monotherapy (CellTiter-Glo). Format: cell-based. The settings on record: Homo sapiens. As for the experimental part:
as §1
(§8) On day 2, 20 μL of a 10-fold test concentration of the working solution of the compound (AST-3424) was added. The cell plates were gently agitated, and were then placed in an incubator at 37 °C for further culture.
(§9) On day 3, 20 μL of a 10-fold test concentration of the solution of the compound (cytarabine and daunorubicin) was added. The cell plates were gently agitated, and were then placed in an incubator at 37 °C for further 72 hours.
(§10) After incubation, to the cell plates was added a reagent prepared according to the Protocol for a […] CellTiter-Glo Reagent (50 μL/well). The plates were thoroughly agitated and were then incubated at room temperature in the dark for 10 minutes.
(§11) The cell plates were placed in a plate reader for analysis to detect chemiluminescence and record the data.
(§12) The readings in each well should be converted into cell viability, which was calculated by the following formula:
(§13) • 1. MOLT-4 and MOLT-3 were derived from a patient with acute lymphoblastic leukemia in relapse who had previously received polydrug combination chemotherapy. The MOLT-4 cell line was originated from T lymphocytes, wherein there is a G→A mutation in Codon 248 of the p53 gene with no expression of p53, immunoglobulin or Epstein-Barr virus, resulting in high levels of terminal deoxyribosyl transferase, and expression of CD1 (49%), CD2 (35%), CD3 A (26%) B (33%) C (34%), CD4 (55%), CD5 (72%), CD6 (22%), and CD7 (77%). The cell is a human acute lymphoblastic leukemia cell, and the corresponding disease is human T-cell acute lymphoblastic leukemia, or T-ALL. • 2. PF-382 is a human T-cell acute lymphoblastic leukemia cell, and the corresponding disease is human T-cell acute lymphoblastic leukemia, or T-ALL. • 3. Jurkat, Clone E6-1 is a clone of the Jurkat-FHCRC cell line, a derivative of the Jurkat cell line, which was established from the peripheral blood of a patient suffering from T-cell acute leukemia. It is a human T lymphocytic leukemia cell, and the corresponding disease is T-ALL. • 4. SUP-T1 is a human T lymphoblastoma cell, and the corresponding disease is T-cell Lymphoblastic Lymphoma (T-LBL). • 5. CCRF-CEM is a human acute lymphoblastic leukemia, T lymphocyte serum culture cell, which was obtained in November 1964 from the peripheral blood leukocytes of a patient suffering from acute lymphoblastic leukemia. The cell is a human T-cell acute lymphoblastic leukemia cell, and the corresponding disease is T-cell acute lymphoblastic leukemia, or T-ALL.

The test system of data set [7] is SUP-T1 cells. The description is as above. The conditions noted are these: Homo sapiens. Format: cell-based. The method, then:
as §1, §8, §9, §10, §11, §12, §13

Data set [8] has as its system CCRF-CEM cells. The data set is described as above. Format: cell-based. The conditions noted are these: Homo sapiens. As for the experimental part: as §1, §8, §9, §10, §11, §12, §13
The subject of data set [9] is MOLT-4 cells. The data set is described as above. Format: cell-based. The settings on record: Homo sapiens. The method, then: as §1, §8, §9, §10, §11, §12, §13
Data set [10] relates to PF-382 cells. The description is as above. Format: cell-based. The settings on record: Homo sapiens. As for the experimental part:
as §1, §8, §9, §10, §11, §12, §13

The test system of data set [11] is five cell lines including CCRF-CEM, PF-382, Jurkat, Clone E6-1, SUP-T1, and MOLT-4. The data set can be described thus: In vitro cell proliferation assay, monotherapy, summary over five cell lines. Format: cell-based, human. The settings on record: for inhibitory effects on cell proliferation: monotherapy, five cell lines. As for the experimental part: as §1, §8, §9, §10, §11, §12, §13

Data set [12] has as its system liver cancer cells. The settings on record: flow cytometry; Bax, Caspase3, PARP; cited from earlier work. Background: In flow cytometry, cells or beads pass a laser one at a time.
Another data set has as its system TGF-β signaling pathway. The conditions noted are these: cited from earlier work.
Data set [13] deals with liver cancer cells. The conditions noted are these: flow cytometry; cited from earlier work.
A further data set relates to PLC/PRF/5. The settings on record: PLC/PRF/5, high AKR1C3 expression; cited from earlier work.
Data set [14] can be described thus: Clinical plasma concentration (dose comparison and conversion). Format: in vivo. From the text:
Both daunorubicin and cytarabine are drugs used in clinical practice to treat leukemia or other tumors.

For data set [15] the following is noted: cited from earlier work.
In data set [16] the test system is acute lymphoblastic leukemia. The settings on record: cited from earlier work.
For data set [17], the system named is neuroblastoma and rhabdomyosarcoma. The conditions noted are these: cited from earlier work.
Setting [18] is: experiments that were conducted previously, read-out: IC50 (superscript 2).
The mark [19] stands for this setting: monotherapy, 72 hours, read-out: IC50.

“Also recorded” adds a separate entry of the source. Counter-ions that a name gives are not always drawn. Like-named read-outs stand apart in the source and are kept apart here.

For the compound `C[C@H](OP(=O)(N1CC1)N1CC1)c1ccc([N+](=O)[O-])c(Oc2cccc(C(=O)N(C)C)c2)c1` [AST-3424], the “effect on proliferation, AST-3424 monotherapy” value with Jurkat, Clone E6-1 cells [1] was “no significant effect”; in the data set on SUP-T1 cells [2], “no effect”; in the data set on CCRF-CEM cells [3], “no effect”; in the data set with MOLT-4 cells [4] (3.2 nM and 6.4 nM AST-3424), “no significant effect”; in the data set on PF-382 cells [5], “no significant effect”. The “migration and invasion of tumor cells” value with tumor cells is “could inhibit the migration and invasion of tumor cells”. Moreover, the inhibitory effects entry in the data set on HepG2 and with PLC/PRF/5 was “excellent inhibitory effects” each time. Besides, the “toxicity to cancer cells” value in the data set with cancer cells (AST-3424 itself (prodrug)) is “low toxicity to cancer cells”. Moreover, in the data set on cancer cells (animal models and in vitro pharmacological experiments), the “dependence of potency on AKR1C3 expression level” value is given as “dependent on the level of AKR1C3 expression; also recorded: positively correlated with AKR1C3 expression levels”. The 50% inhibitory concentration (IC50) (commonly the concentration at which inhibition is half-maximal) in the data set on Jurkat, Clone E6-1 cells [6] (setting [18]) worked out at 0.024 µM; with Jurkat, Clone E6-1 cells [6] (setting [19]) it was 4.62 µM; in the data set with SUP-T1 cells [7] (setting [18]), 0.0037 µM; in the data set with SUP-T1 cells [7] (setting [19]) it was 0.00247 µM; in the data set with CCRF-CEM cells [8] (setting [18]), 0.0149 µM; with CCRF-CEM cells [8] (setting [19]), 0.00368 µM. In addition, the half-inhibitory concentration (IC50) amounted to 0.01 µM in the data set on MOLT-4 cells [9] (setting [18]), 0.00804 µM with MOLT-4 cells [9] (setting [19]), 0.003 µM with PF-382 cells [10] (setting [18]) and 0.00409 µM in the data set with PF-382 cells [10] (setting [19]). In addition, in data set [11] (four cell lines except Jurkat, Clone E6-1), the “in vitro cytotoxicity compared with daunorubicin and cytarabine” value is “superior to that of daunorubicin and cytarabine”. For the same compound, the “inhibitory effects on cell proliferation” value in data set [11] is recorded as “good inhibitory effects”. Further, the apoptosis induction entry with liver cancer cells [12] is “may induce apoptosis by upregulating Bax and Caspase3 proteins and downregulating the PARP protein”. In addition, in the data set with TGF-β signaling pathway, the “effect on TGF-β signaling pathway / proliferation” value is “could reduce the proliferation effect by inhibiting the TGF-β signaling pathway”. Further, the cell cycle block result with liver cancer cells [13] is recorded as “could block the cells in the S phase”.

With `Nc1ccn([C@@H]2O[C@H](CO)[C@@H](O)[C@@H]2O)c(=O)n1` [Cytarabine, cytarabine, reference compound], the IC50 turned out to be 0.1 µM in the data set on Jurkat, Clone E6-1 cells [6] (setting [19]); 0.856 µM with SUP-T1 cells [7] (setting [19]); 0.0822 µM in the data set with CCRF-CEM cells [8] (setting [19]); 0.12 µM with MOLT-4 cells [9] (setting [19]); 0.0264 µM in the data set with PF-382 cells [10] (setting [19]). In [11], the “inhibitory effects on cell proliferation” value is “good inhibitory effects”. Further, the concentration in [14] (1.8-3 g/m^2, administration with 12 times, converted from steady concentration, read-out: Molar concentration after conversion (steady concentration)) lay in the range of 32 to 97 µM. The Steady plasma concentration in [15] (1.8-3 g/m^2, administration with 12 times, steady concentration) is 8 to 24 µg/mL.

`COc1cccc2c1C(=O)c1c(O)c3c(c(O)c1C2=O)C[C@@](O)(C(C)=O)C[C@@H]3O[C@H]1C[C@H](N)[C@H](O)[C@H](C)O1` [Daunorubicin hydrochloride, daunorubicin hydrochloride, reference compound]: the IC50 with Jurkat, Clone E6-1 cells [6] (setting [19]) was 0.041 µM; in the data set on SUP-T1 cells [7] (setting [19]), 0.0306 µM; with CCRF-CEM cells [8] (setting [19]), 0.0307 µM; with MOLT-4 cells [9] (setting [19]), 0.0242 µM; with PF-382 cells [10] (setting [19]), 0.0142 µM.

In the case of `COc1cccc2c1C(=O)c1c(O)c3c(c(O)c1C2=O)C[C@@](O)(C(C)=O)C[C@@H]3O[C@H]1C[C@H](N)[C@H](O)[C@H](C)O1` [daunorubicin], the “potency on cell proliferation, daunorubicin” value with MOLT-4 cells [4] (40 nM daunorubicin) is given as “very significant potency”. For the same compound, the remission rate entry in [16] (acute lymphoblastic leukemia) is “high remission rate”. For the same compound, in data set [16] (clinical use), the side effects result is “severe side effects”. Further, the therapeutic effects entry in data set [17] is “excellent therapeutic effects”. For the same compound, the “inhibitory effects on cell proliferation” value in [11] was “good inhibitory effects”. Moreover, the Cmax in data set [14] (human, plasma, 44 mg/m^2, administration on day 1, 3, 5, converted from Cmax, read-out: Molar concentration after conversion (Cmax)) was determined as 49 µM. The “Plasma Cmax” value in data set [15] (44 mg/m^2, administration on day 1, 3, 5, Cmax) was 26000 ng/mL.
